Assay: plasticizer lost from sensor membrane over use life, remaining plasticizer determined by UPLC
Assay type: physicochemical
Details: membranes in RAPIDPoint systems, at least 25 days, about 10 whole blood samples per business day
Protocol: Membrane formulations were prepared by using NPOE or ETH 217 plasticizers with polyvinylchloride, magnesium ionophore and lipohilic ion exchange salt. The materials were dissolved in a suitable organic solvent at a solids ratio of 10%. The solutions were deposited on the sensor substrates and the solvent allowed to evaporate yielding the formed membranes. The formulations were optimized to yield membranes with the best obtainable magnesium selectivity over calcium and were generally at least greater than 1:1.
Sensors were incorporated into RAPIDPoint systems (available from Siemens Healthcare Diagnostics Inc.) and tested over at least 25 days. During this time, sensors were calibrated with magnesium containing reagents and exposed to whole blood samples at approximately 10 per business day. In addition, magnesium containing quality control solutions were also run across least 25 days at least once every day. After testing the membranes were removed from the sensor substrate and the amount of remaining plasticizer was determined by UPLC and so the amount of plasticizer lost over time was calculated.

CCCCCCCCCCCCOc1ccccc1[N+](=O)[O-] [ETH 217, 1-dodecyloxy-2-nitrobenzene]
% by wt Plasticizer Lost: 3.9%
